The text below walks through data of ChEMBL document CHEMBL5126521, “Analgesic Opioid Ligand Discovery Based on Nonmorphinan Scaffolds Derived from Natural Sources” (J Med Chem, 2022).

A word on the IC50: it is the point on the concentration scale where inhibition reaches its midpoint. The term Ki denotes a dissociation constant, usually derived from enzyme kinetics or from competition with a known ligand. The term half-life denotes how long it takes for the measured level to halve. By EC50 is commonly meant the concentration giving half of the maximal effect. As usually defined, the Emax is the maximal effect, on the per cent scale that the assay sets.

Square brackets hold non-standard residues; d marks the D form. Peptide text beside a SMILES is read from it.

In data set [1] the target is Mu-type opioid receptor (Cavia porcellus, UniProt P97266). As to the kind of experiment: Antagonist activity at guinea pig ileum MOP. It counts as functional, tissue-based.
Mu-type opioid receptor (Cavia porcellus, UniProt P97266), sequence (P97266 whole entry): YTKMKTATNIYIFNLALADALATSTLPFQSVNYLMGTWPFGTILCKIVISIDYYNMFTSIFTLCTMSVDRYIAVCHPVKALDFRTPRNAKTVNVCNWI
In data set [2] the test system is Rattus norvegicus. The data set is described as follows: Antinociceptive activity in rat administered icv by tail pressure test relative to control. In kind it is functional. Further details: concentration or dose not given beside the values.
Data set [3] concerns the target Mu-type opioid receptor (Mus musculus, UniProt P42866). The data set is described as follows: Antagonist activity at mouse vas deferns MOP. It counts as functional.
Data set [4] has as its target T1, Mu-type opioid receptor (Homo sapiens, UniProt P35372). The data set is described as follows: Binding affinity to MOP (unknown origin).
Data set [5] addresses T2, Delta-type opioid receptor (Homo sapiens, UniProt P41143). The data set is described as follows: Binding affinity to DOP (unknown origin).
Data set [6] deals with Mus musculus. As to the kind of experiment: Antinociceptive activity in mouse administered icv. In kind it is functional.
The species entered for data set [7] is Mus musculus. As to the kind of experiment: Antinociceptive activity in mouse by tail pressure test. In kind it is functional. To be noted: Mus musculus; read-out: ED50.
Data set [8] has as its target T3, Kappa-type opioid receptor (Homo sapiens, UniProt P41145). As to the kind of experiment: Inhibition of KOP (unknown origin).
The target in data set [9] is T2, Delta-type opioid receptor. The data set is described as follows: Inhibition of DOP (unknown origin).
Data set [10] is described as follows: Stability in rat brain homogenate assessed as half life. It counts as ADME, tissue-based.
For data set [11], the system named is Mus musculus. As to the kind of experiment: Antinociceptive activity in Kunming mouse assessed as heat paw withdrawal measured after 10 secs administered icv. To be noted: time 10 sec, 10 s. In kind it is functional.
A short description of data set [12]: Stability in mouse serum assessed as half life. In kind it is ADME, cell-free.
For data set [13], the system named is Rattus norvegicus. As to the kind of experiment: Antinociceptive activity in Sprague-Dawley rat assessed as tail flick response in warm water administered icv. It counts as functional.
In data set [14] the target is T2, Delta-type opioid receptor. As to the kind of experiment: Displacement of [3H]DPDPE from human DOP expressed in CHO-K1 cell membrane incubated for 60 mins by Microscint-counting analysis. It counts as cell membranes.
The target of data set [15] is T1, Mu-type opioid receptor. As to the kind of experiment: Agonist activity at human MOP expressed in CHO-K1 cell membrane assessed as [35S]GTPgammaS binding. In kind it is functional, cell membranes. On the technique in general: GTPγS resists hydrolysis and so accumulates on activated G proteins.
In data set [16] the target is T1, Mu-type opioid receptor. The data set is described as follows: Displacement of [3H]DAMGO from human MOP expressed in CHO-K1 cell membrane incubated for 60 mins by Microscint-counting analysis. It counts as cell membranes. (Loss of bound radioactivity is the signal in a displacement assay; it reports binding, not function.)
Data set [17] has as its target T1, Mu-type opioid receptor. The data set is described as follows: Agonist activity at human MOP expressed in CHO-K1 cell membrane assessed as [35S]GTPgammaS binding relative to control. In kind it is functional, cell membranes. The conditions noted are these: filed as agonist.
Data set [18] relates to Rattus norvegicus. As to the kind of experiment: Antinociceptive activity in Sprague-Dawley rat assessed as tail flick response in warm water administered iv. It counts as functional.
The target of data set [19] is T2, Delta-type opioid receptor. The data set is described as follows: Displacement of [3H]DPDPE from DOP (unknown origin) stably expressed in HEK293 cells by liquid scintillation counter analysis. In kind it is cell-based.
Data set [20] can be described thus: Stability in mouse brain homogenate assessed as half life. It counts as ADME, tissue-based.
Data set [21] has as its target T1, Mu-type opioid receptor. The data set is described as follows: Agonist activity at MOP (unknown origin) stably expressed in HEK293 cells assessed as forskolin stimulated cAMP accumulation incubated for 30 mins by radioactivity based scintillation counter analysis. In kind it is functional, cell-based. (In general: cAMP levels reflect the balance of adenylyl cyclase and phosphodiesterase activity.)

For data set [22], the target named is T1, Mu-type opioid receptor. The data set is described as follows: Agonist activity at MOP (unknown origin) stably expressed in HEK293 cells assessed as forskolin stimulated cAMP accumulation incubated for 30 mins by radioactivity based scintillation counter analysis relative to control. It counts as functional, cell-based. The conditions noted are these: filed as agonist.

In data set [23] the target is T1, Mu-type opioid receptor. The data set is described as follows: Displacement of [3H]DAMGO from MOP (unknown origin) stably expressed in HEK293 cells by liquid scintillation counter analysis. In kind it is cell-based.
Data set [24] concerns the target T1, Mu-type opioid receptor. The data set is described as follows: Displacement of [3H]DAMGO from MOP (unknown origin) stably expressed in CHO cell membrane incubated for 90 mins by scintillation counter analysis. It counts as cell membranes.
Data set [25] deals with T3, Kappa-type opioid receptor. As to the kind of experiment: Displacement of [3H]diprenorphine from KOP (unknown origin) stably expressed in CHO cell membrane incubated for 90 mins by scintillation counter analysis. It counts as cell membranes.
For data set [26], the target named is T2, Delta-type opioid receptor. The data set is described as follows: Displacement of [3H]DPDPE from DOP (unknown origin) stably expressed in CHO cell membrane incubated for 90 mins by scintillation counter analysis. In kind it is cell membranes.
The subject of data set [27] is Mus musculus. The data set is described as follows: Antinociceptive activity in icv dosed C57BL/6J mouse assessed as tail withdrawal latency from warm water. In kind it is functional.
Data set [28] is described as follows: Toxicity in icv dosed C57BL/6J mouse assessed as antinociceptive activity tolerance. In kind it is organism-based. The conditions noted are these: in vivo, icv_or_intrathecal.
Data set [29] concerns Mus musculus. The data set is described as follows: Antinociceptive activity in po dosed C57BL/6J mouse assessed as tail withdrawal latency from warm water. It counts as functional.
Data set [30] in a line: Half life in mouse liver microsomes. In kind it is ADME, Microsome.

T2 sequence (P41143 whole entry): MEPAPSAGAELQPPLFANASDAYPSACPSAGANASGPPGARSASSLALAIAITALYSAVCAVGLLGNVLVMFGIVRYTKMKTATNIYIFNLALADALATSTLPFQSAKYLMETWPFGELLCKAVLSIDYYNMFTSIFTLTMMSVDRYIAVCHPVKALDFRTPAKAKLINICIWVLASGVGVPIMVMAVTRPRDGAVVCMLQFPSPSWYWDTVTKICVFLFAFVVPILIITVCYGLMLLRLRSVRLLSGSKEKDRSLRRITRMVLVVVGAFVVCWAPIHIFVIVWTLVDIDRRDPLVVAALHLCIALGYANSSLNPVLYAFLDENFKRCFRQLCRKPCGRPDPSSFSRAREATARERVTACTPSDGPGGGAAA
T3 sequence (P41145 whole entry): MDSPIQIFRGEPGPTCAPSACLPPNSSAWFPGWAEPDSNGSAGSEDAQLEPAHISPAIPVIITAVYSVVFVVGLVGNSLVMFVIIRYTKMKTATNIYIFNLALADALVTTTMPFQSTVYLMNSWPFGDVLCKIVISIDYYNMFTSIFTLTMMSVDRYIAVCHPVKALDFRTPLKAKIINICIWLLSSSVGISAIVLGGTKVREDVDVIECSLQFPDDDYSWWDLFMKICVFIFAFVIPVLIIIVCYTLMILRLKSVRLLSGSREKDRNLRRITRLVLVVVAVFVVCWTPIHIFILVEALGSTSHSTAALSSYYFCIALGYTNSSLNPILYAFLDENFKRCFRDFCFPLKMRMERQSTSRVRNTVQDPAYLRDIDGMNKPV
T1 sequence (P35372 whole entry): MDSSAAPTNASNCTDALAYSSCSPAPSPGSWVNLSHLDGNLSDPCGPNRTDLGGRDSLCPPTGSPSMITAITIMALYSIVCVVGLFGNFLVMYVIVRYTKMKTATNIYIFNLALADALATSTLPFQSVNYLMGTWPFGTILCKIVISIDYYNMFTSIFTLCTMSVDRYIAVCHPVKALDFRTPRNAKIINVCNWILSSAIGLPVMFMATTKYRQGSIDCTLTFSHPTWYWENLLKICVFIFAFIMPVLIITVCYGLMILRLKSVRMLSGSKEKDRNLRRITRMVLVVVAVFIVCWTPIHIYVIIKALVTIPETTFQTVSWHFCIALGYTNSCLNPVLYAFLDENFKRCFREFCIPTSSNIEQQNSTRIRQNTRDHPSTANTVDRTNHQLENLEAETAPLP
Mu-type opioid receptor (Mus musculus, UniProt P42866), sequence (P42866 whole entry): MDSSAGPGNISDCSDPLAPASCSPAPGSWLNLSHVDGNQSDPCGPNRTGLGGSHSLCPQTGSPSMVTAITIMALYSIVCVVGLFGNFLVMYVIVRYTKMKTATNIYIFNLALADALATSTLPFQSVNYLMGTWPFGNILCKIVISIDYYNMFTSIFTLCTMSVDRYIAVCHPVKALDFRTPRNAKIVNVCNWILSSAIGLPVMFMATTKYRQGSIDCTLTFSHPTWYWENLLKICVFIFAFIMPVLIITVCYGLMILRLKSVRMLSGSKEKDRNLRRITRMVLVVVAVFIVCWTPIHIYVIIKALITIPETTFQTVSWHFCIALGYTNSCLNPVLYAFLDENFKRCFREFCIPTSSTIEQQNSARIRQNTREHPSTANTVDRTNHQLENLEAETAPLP

For the compound `C[C@@H](NC(=O)[C@@H](N)Cc1ccc(O)cc1)C(=O)N[C@@H](Cc1ccccc1)C(=O)NCC(=O)N[C@@H](Cc1ccc(O)cc1)C(N)=O` (H-Y[dA]FGY-NH2), the concentration for half-maximal inhibition (IC50) against Mu-type opioid receptor [1] was 2.9 nM; against Mu-type opioid receptor [3], 23.8 nM. Also, the Activity in the data set on Rattus norvegicus [2] is given as 27%. Besides, the inhibition constant Ki is 0.98 nM on Mu-type opioid receptor [4] and 88 nM in data set [5].
Turning to `N=C(N)NCCC[C@@H](NC(=O)[C@@H](N)Cc1ccc(O)cc1)C(=O)N[C@@H](Cc1ccccc1)C(=O)NCC(=O)N[C@@H](Cc1ccc(O)cc1)C(=O)N1CCC[C@H]1C(N)=O`, on Mu-type opioid receptor [1], the IC50 worked out at 190 nM. In addition, in the data set on Mus musculus [6], the ED50 turned out to be 12.5 pmol.
`N=C(N)NCCC[C@@H](NC(=O)[C@@H](N)Cc1ccc(O)cc1)C(N)=O` had an IC50 on Mu-type opioid receptor [1] of 44000 nM. Also, in the data set with Mus musculus [6], the ED50 is listed as 47000 pmol.
Take `N=C(N)NCCC[C@@H](NC(=O)[C@@H](N)Cc1ccc(O)cc1)C(=O)N[C@@H](Cc1ccccc1)C(=O)NCC(=O)N[C@@H](Cc1ccc(O)cc1)C(=O)N1CCC[C@H]1C(=O)N[C@@H](CO)C(N)=O`: it took 90 nM to reach half-maximal inhibition against Mu-type opioid receptor [1] (IC50). Moreover, the ED50 in the data set on Mus musculus [6] was 23 pmol; in the data set filed under Mus musculus [7], 3.5 mg/kg.
As to `CC[C@H]1CN2CCc3c([nH]c4cccc(OC)c34)[C@@H]2C[C@@H]1/C(=C\OC)C(=O)OC`, the IC50 in [8] was 10000 nM; in data set [9], over 10000 nM. The Ki in [5] is over 10000 nM.
Consider `C[C@@H](NC(=O)[C@@H](N)Cc1ccc(O)cc1)C(=O)N[C@@H](Cc1ccccc1)C(N)=O`, for which the half-maximal inhibitory concentration (IC50) came to 262 nM on Mu-type opioid receptor [1] and 4050 nM against Mu-type opioid receptor [3]. In addition, the Activity in the data set on Rattus norvegicus [2] is recorded as under 0.2%.
Take `CCOC(=O)[C@H](Cc1ccccc1)NC(=O)[C@H](Cc1ccccc1)NC(=O)[C@@H]1CCCN1C(=O)[C@@H](N)Cc1ccc(O)cc1`: the values for the half-life in [10] and in [12] were 58.6 min and 29.9 min, respectively. In addition, the ED50 with Mus musculus [11] is 8.4 nmol. The Ki at Mu-type opioid receptor [4] is 15 nM; in [5] it was 2940 nM.
Consider `NC(=O)[C@@H]1CCC(=O)NCCCC[C@@H](NC(=O)[C@@H](N)Cc2ccc(O)cc2)C(=O)N[C@@H](Cc2c[nH]c3ccccc23)C(=O)N[C@@H](Cc2ccccc2)C(=O)N1`, for which the values for the ED50 in the data set on Rattus norvegicus [13] and in the data set on Rattus norvegicus [18] were 0.021 nmol and 2.2 mg/kg, respectively. The Ki in [14] amounted to 83 nM; on Mu-type opioid receptor [16] it was 0.63 nM. Besides, the EC50 on Mu-type opioid receptor [15] is 0.43 nM. Moreover, on Mu-type opioid receptor [17], the maximal response (Emax) stood at 100%.
Take `C=C(C(N)=O)[C@@H](NC(=O)[C@H](Cc1ccccc1)NC(=O)[C@@H](C)N(C)C(=O)[C@@H](N)Cc1c(C)cc(O)cc1C)c1ccccc1`: the inhibition constant (Ki) was 55.7 nM in data set [19] and 0.0511 nM at Mu-type opioid receptor [23]. The half-life in [20] and in [12] was at least 300 min in each case. For the same compound, the EC50 at Mu-type opioid receptor [21] is 0.000515 nM. On Mu-type opioid receptor [22], the Emax amounted to 95.1%.
`C[C@@H]1NC(=O)[C@H]2CCCN2C(=O)[C@H](Cc2ccccc2)NC(=O)[C@H](Cc2c[nH]c3ccccc23)NC1=O`: the Ki is 533 nM at Mu-type opioid receptor [24], 663 nM in data set [25] and over 10000 nM in data set [26].
The compound `C[C@@H](NC(=O)[C@@H](N)Cc1ccc(O)cc1)C(=O)N[C@@H](Cc1ccccc1)C(=O)NCC(=O)N[C@@H](Cc1ccc(O)cc1)C(=O)N1CCC[C@H]1C(=O)N[C@@H](CO)C(N)=O` showed an Activity in the data set on Rattus norvegicus [2] of under 0.05%.
Consider `C=C(C(N)=O)[C@@H](NC(=O)[C@H](Cc1ccccc1)NC(=O)[C@@H](C)N(C)C(=O)[C@@H](N)Cc1c(C)cc(O)cc1C)c1ccco1`, for which the Ki turned out to be 47.2 nM in data set [19] and 0.014 nM at Mu-type opioid receptor [23]. Also, the half-life in data set [20] and in [12] was at least 300 min each time. Further, the EC50 at Mu-type opioid receptor [21] came to 0.00201 nM. In addition, the Emax at Mu-type opioid receptor [22] worked out at 96.9%.
Take `C[C@@H]1C(=O)N[C@@H](Cc2ccccc2)C(=O)N[C@@H](Cc2c[nH]c3ccccc23)C(=O)N[C@@H](Cc2ccccc2)C(=O)N1C`: the results for the Ki (at Mu-type opioid receptor [24]; in data set [25]; in data set [26]) were 140 nM, 113 nM and 1370 nM, respectively. The ED50 in the data set with Mus musculus [27] came out at 2.43 nmol.
With `O=C1N[C@H](Cc2ccccc2)C(=O)N2CCC[C@@H]2C(=O)N[C@@H](Cc2ccccc2)C(=O)N[C@H]1Cc1c[nH]c2ccccc12`, the results for the ED50 (in data set [28]; with Mus musculus [27]; in the data set with Mus musculus [29]) were 20.3 nmol, 0.75 nmol and 7.62 mg/kg, respectively. On Mu-type opioid receptor [24], the Ki was over 100000 nM. In [30], this compound gave a half-life of 54 min.
